Test results reported in ChEMBL document CHEMBL3301472, “MMV Malaria Box HIV and cytotoxicity screening”.

How the values were obtained:
Type in all cases: toxicity, cell-based
[1] = MMV: MTT Cytotoxicity Assay Day 7 pi of Assay #10 (NO washout), U87-CD4-CCR5 cells, % cell death @ 5mM compound; conditions: human, u87-cd4-ccr5, 5000 µM
[2] = MMV: MTT Cytotoxicity Assay Day 7 pi of Assay #11 (NO washout), U87-CD4-CXCR4 cells, % cell death @ 5mM compound; conditions: human, u87-cd4-cxcr4, 5000 µM
[3] = MMV: MTT Cytotoxicity Assay Day 3 pi, U87-CD4-CXCR4 cells, % cell death @ 5mM compound; conditions: human, u87-cd4-cxcr4, 5000 µM
[4] = MMV: MTT Cytotoxicity Assay Day 7 pi of Assay #7 (compound washed out Day 1 pi), U87-CD4-CXCR4 cells, % cell death @ 5mM compound; conditions: human, u87-cd4-cxcr4, 5000 µM
[5] = MMV: MTT Cytotoxicity Assay Day 3 pi, U87-CD4-CCR5 cells, % cell death @ 5mM compound; conditions: human, u87-cd4-ccr5, 5000 µM
[6] = MMV: MTT Cytotoxicity Assay Day 7 pi of Assay #6 (compound washed out Day 1 pi), U87-CD4-CCR5 cells, % cell death @ 5mM compound; conditions: human, u87-cd4-ccr5, 5000 µM

| SMILES | % Cell Death [1] | % Cell Death [2] | % Cell Death [3] | % Cell Death [4] | % Cell Death [5] | % Cell Death [6] |
| --- | --- | --- | --- | --- | --- | --- |
| Cl.N=c1n(CCN2CCCCC2)c2ccccc2n1CC(O)c1cccc(Br)c1 (stereo unspecified) | 11 | 8 | 27 | -20 | 2 | 10 |
| Cn1c(=O)c2cc(C(=O)NCCCN3CCCCCC3)sc2c2ccccc21 | 23 | 29 | 29 | -51 | 4 | 35 |
| COCCN(C(=O)Cc1cccs1)C(C(=O)NCc1ccc(OC)cc1)c1ccc(C(C)C)cc1 (stereo unspecified) | 140 | 68 | 12 | -10 | 13 | 16 |
| Oc1ccc(Cl)cc1CNc1nc2ccccc2[nH]1 | -8 | 24 | 10 | -38 | -44 | 10 |
| O=C(c1ccccc1F)N(Cc1ccc(Cl)cc1)c1ccccn1 | 87 | 71 | 44 | -34 | 50 | 22 |
| O=C(Nc1ccc(CN2CCOCC2)cc1)c1ccc(-c2ccc(Br)cc2)o1 | 96 | 6 | 15 | -2 | 20 | 14 |
| CC(=O)NCCc1nc2ccccc2n1Cc1ccc(C(C)C)cc1 | 13 | 14 | 15 | -3 | -2 | 34 |
| CCN(CC)c1ccc(NC(=O)c2cccs2)cc1 | 106 | 102 | 56 | 43 | 94 | 18 |
| CC(C)(C)C(=O)Nc1ccc(C(=O)Nc2cccc(-c3nc4ccccc4[nH]3)c2)cc1 | 4 | 85 | 20 | -22 | 17 | 18 |
| COc1ccc(-c2nonc2NC(=O)c2cccc(C)c2)cc1OC | -7 | -3 | 11 | -11 | 13 | -21 |
| COc1cccc(-c2nn(C)c3sc(C(=O)NCCN4CCN(c5ccccc5F)CC4)cc23)c1 | 33 | 13 | 64 | -4 | 21 | 2 |
| O=C(Nc1cccc(C(F)(F)F)c1)c1cc(Cl)ccc1O | 124 | 95 | 70 | 97 | 95 | 100 |
| CC(C)(C)c1ccc(C(=O)Nc2nc3ccccc3s2)cc1 | 24 | -30 | 12 | -23 | 1 | 20 |
| CCOc1ccc(/C=C/c2nc(=O)c3ccccc3o2)cc1 | 21 | 10 | 31 | -27 | 41 | 27 |
| CCOc1c(Cl)cc(CNC(C)C(O)c2ccccc2)cc1OC (stereo unspecified) | 98 | -28 | 22 | -15 | -4 | 0 |
| CCCN(CCC)CCCNC(=O)c1cc2c(-c3ccc(OC)c(OC)c3)nn(C)c2s1 | 100 | 103 | 9 | -24 | 51 | 59 |
